Laboratory results: ChEMBL document CHEMBL3120114, “Synthesis and evaluation of new coumarin derivatives as potential atypical antipsychotics” (Eur J Med Chem, 2014)

What was measured:
Histamine H1 receptor = Histamine H1 receptor (Cavia porcellus, UniProt P31389); experiment: Displacement of [3H]mepyramine from histamine H1 receptor in guinea pig cerebellum homogenate after 60 mins by liquid scintillation counting; assay type: tissue-based
D(2) dopamine receptor = D(2) dopamine receptor (Rattus norvegicus, UniProt P61169); experiment: Displacement of [3H]spiperone from dopamine D2 receptor in Sprague-Dawley rat striatum homogenate after 30 mins by liquid scintillation counting
Chain of D(2) dopamine receptor (P61169 whole entry): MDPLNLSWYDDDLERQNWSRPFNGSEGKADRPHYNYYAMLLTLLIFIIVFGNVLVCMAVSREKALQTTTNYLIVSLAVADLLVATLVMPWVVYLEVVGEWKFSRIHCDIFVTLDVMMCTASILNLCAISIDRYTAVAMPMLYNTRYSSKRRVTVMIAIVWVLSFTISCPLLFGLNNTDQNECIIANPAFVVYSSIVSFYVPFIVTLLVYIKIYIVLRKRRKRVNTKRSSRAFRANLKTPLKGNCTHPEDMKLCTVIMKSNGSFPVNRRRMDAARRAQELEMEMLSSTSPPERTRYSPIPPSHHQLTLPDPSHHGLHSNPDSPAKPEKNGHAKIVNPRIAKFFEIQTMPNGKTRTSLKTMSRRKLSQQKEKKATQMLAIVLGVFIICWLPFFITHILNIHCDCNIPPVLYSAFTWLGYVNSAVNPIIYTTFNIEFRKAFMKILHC

[1] = target: T1, 5-hydroxytryptamine receptor 1A (Rattus norvegicus, UniProt P19327); experiment: Displacement of [3H]8-OH-DPAT from 5HT1A receptor in Sprague-Dawley rat brain cortex homogenate after 30 mins by liquid scintillation counting; assay type: tissue-based
T1 sequence (P19327 whole entry): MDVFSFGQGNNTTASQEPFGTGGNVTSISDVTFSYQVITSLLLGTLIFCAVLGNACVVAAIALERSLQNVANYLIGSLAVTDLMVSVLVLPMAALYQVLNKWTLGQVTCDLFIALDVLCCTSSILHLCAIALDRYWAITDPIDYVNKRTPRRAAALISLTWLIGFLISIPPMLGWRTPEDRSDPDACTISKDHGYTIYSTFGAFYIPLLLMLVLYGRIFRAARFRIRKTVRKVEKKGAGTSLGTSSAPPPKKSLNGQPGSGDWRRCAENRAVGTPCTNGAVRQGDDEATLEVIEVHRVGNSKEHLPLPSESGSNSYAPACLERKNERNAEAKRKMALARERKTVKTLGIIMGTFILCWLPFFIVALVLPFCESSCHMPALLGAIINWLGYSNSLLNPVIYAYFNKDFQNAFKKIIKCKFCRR

D(3) dopamine receptor = D(3) dopamine receptor (Rattus norvegicus, UniProt P19020); experiment: Displacement of [3H]7-OH-DPA from dopamine D3 receptor in Sprague-Dawley rat olfactory tubercle homogenate after 60 mins by liquid scintillation counting; assay type: tissue-based
Chain of D(3) dopamine receptor (P19020 whole entry): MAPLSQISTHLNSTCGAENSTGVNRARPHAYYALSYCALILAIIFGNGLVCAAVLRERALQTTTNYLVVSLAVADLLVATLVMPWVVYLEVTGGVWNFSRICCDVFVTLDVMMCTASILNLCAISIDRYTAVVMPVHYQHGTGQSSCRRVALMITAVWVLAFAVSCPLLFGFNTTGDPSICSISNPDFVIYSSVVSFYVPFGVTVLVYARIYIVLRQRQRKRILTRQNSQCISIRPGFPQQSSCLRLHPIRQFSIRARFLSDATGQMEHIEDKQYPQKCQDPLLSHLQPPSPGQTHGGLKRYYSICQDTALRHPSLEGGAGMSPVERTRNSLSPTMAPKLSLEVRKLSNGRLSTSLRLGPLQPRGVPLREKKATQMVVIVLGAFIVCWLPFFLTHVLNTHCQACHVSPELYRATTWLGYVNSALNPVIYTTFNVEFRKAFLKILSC

[2] = target: 5-hydroxytryptamine receptor 2A (Rattus norvegicus, UniProt P14842); experiment: Displacement of [3H]Ketanserin from 5HT2A receptor in Sprague-Dawley rat brain cortex homogenate after 30 mins by liquid scintillation counting; assay type: tissue-based
Chain of 5-hydroxytryptamine receptor 2A (P14842 whole entry): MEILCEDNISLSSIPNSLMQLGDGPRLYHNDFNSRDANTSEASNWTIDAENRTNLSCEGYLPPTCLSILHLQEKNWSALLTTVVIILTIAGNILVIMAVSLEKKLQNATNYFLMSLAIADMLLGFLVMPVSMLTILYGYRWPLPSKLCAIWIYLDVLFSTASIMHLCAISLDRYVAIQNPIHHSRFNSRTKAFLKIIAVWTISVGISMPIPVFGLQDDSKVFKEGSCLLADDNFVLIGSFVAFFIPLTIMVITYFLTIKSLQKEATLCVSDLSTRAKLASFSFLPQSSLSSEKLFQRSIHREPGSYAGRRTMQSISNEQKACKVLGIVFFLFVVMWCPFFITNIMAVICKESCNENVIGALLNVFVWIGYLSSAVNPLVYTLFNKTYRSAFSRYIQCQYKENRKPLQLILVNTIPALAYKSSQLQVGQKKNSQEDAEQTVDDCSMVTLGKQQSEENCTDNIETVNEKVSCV

Mus musculus [3] = experiment: Toxicity in po dosed Kunming mouse assessed as induction of catalepsy; assay type: organism-based; details: in vivo
Mus musculus [4] = experiment: Antipsychotic activity in po dosed Kunming mouse assessed as reduction in MK801-induced hyperactivity compound administered 30 mins prior to MK801 challenge measured for 90 mins post challenge; assay type: functional
Mus musculus [5] = experiment: Antipsychotic activity in po dosed Kunming mouse assessed as reversal of apomorphine-induced cage climbing response compound administered 30 mins prior to apomorphine challenge measured for 30 mins post challenge; assay type: functional
in vivo [6] = details: Kunming, mouse, po
Description: Therapeutic index, ratio of ED50 for induction of catalepsy to ED50 for antipsychotic activity in po dosed Kunming mouse assessed as reversal of apomorphine-induced cage climbing response

in vivo [7] = details: Kunming, mouse, po; remark: listed apart in the source
Description: Therapeutic index, ratio of ED50 for induction of catalepsy to ED50 for antipsychotic activity in po dosed Kunming mouse assessed as reduction in MK801-induced hyperactivity

[8] = Acute toxicity in po dosed Kunming mouse assessed as survival measured after 24 hrs; assay type: organism-based; details: in vivo

Chain of Histamine H1 receptor (P31389 whole entry): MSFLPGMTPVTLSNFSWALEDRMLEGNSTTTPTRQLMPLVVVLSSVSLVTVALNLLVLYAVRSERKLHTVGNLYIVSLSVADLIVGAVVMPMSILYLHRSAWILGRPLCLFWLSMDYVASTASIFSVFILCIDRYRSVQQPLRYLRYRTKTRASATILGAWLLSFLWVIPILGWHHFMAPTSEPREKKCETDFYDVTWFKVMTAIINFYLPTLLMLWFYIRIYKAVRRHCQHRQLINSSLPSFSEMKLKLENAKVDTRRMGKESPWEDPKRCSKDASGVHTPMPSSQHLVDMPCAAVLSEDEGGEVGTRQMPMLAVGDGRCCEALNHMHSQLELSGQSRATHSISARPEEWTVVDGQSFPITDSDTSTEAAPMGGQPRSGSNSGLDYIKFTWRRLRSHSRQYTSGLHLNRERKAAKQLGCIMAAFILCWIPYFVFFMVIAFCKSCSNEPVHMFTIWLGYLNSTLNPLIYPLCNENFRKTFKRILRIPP

Row | SMILES | Ki (D(2) dopamine receptor) [nM] | Ki [1] [nM] | Ki [2] [nM] | also measured
1 | O=c1oc2cc(OCCCCN3CCC(c4noc5cc(F)ccc45)CC3)ccc2c2c1CCC2 | 24.4 | 47.5 | 13.1 | Ki (Histamine H1 receptor): 21.3 nM; Ki (D(3) dopamine receptor): 110 nM
2 | O=c1oc2cc(OCCCCN3CCN(c4cccc(C(F)(F)F)c4)CC3)ccc2c2c1CCC2 | > 10000 | 19.3 | 174 | –
3 | COc1ccccc1N1CCN(CCCCOc2ccc3c4c(c(=O)oc3c2C)CCC4)CC1 | 570 | 349 | 175 | –
4 | O=c1oc2cc(OCCCCN3CCC(c4noc5cc(F)ccc45)CC3)ccc2c2ccccc12 | > 10000 | > 10000 | > 10000 | –
5 | O=c1oc2cc(OCCCCN3CCN(c4ccccc4)CC3)ccc2c2c1CCC2 | > 10000 | 56 | 59.2 | –
6 | COc1cccc(N2CCN(CCCCOc3ccc4c5c(c(=O)oc4c3)CCC5)CC2)c1 | 1060 | 22.4 | 895 | –
7 | COc1ccccc1N1CCN(CCCCOc2ccc3c4c(c(=O)oc3c2)CCC4)CC1 | 5.6 | 0.2 | 3.9 | Ki (Histamine H1 receptor): 699 nM; Ki (D(3) dopamine receptor): 178 nM
8 | Cc1nc2n(c(=O)c1CCN1CCC(c3noc4cc(F)ccc34)CC1)CCCC2 [RISPERIDONE] | – | – | – | ED50 (Mus musculus [3]): 0.43 mg/kg; ED50 (Mus musculus [4]): 0.017 mg/kg; ED50 (Mus musculus [5]): 0.02 mg/kg
9 | O=C(CCCN1CCC(O)(c2ccc(Cl)cc2)CC1)c1ccc(F)cc1 [HALOPERIDOL] | – | – | – | selectivity ratio (in vivo [6]): 2.71; ED50 (Mus musculus [3]): 0.38 mg/kg; ED50 (Mus musculus [4]): 0.16 mg/kg; ED50 (Mus musculus [5]): 0.14 mg/kg; selectivity ratio (in vivo [7]): 2.38
10 | O=c1oc2cc(OCCCCN3CCC(c4noc5cc(F)ccc45)CC3)c(Cl)cc2c2c1CCC2 | 146 | 140 | 249 | –
11 | COc1ccccc1N1CCN(CCCCOc2cc3oc(=O)c4c(c3cc2Cl)CCC4)CC1 | > 10000 | 84.8 | 36.6 | –
12 | O=c1oc2cc(OCCCCN3CCN(c4cccc(Cl)c4Cl)CC3)ccc2c2c1CCC2 | 1900 | 68 | 79.3 | –
13 | COc1ccccc1N1CCN(CCCOc2ccc3c4c(c(=O)oc3c2)CCC4)CC1 | > 10000 | 640 | 618 | –
14 | O=c1oc2cc(OCCCCN3CCN(c4ccccn4)CC3)ccc2c2c1CCC2 | > 10000 | 1260 | 1400 | –
15 | CN1CCN(C2=Nc3cc(Cl)ccc3Nc3ccccc32)CC1 [CLOZAPINE] | – | – | – | ED50 (Mus musculus [3]): 46.14 mg/kg; ED50 (Mus musculus [4]): 2.25 mg/kg; ED50 (Mus musculus [5]): 3.97 mg/kg
16 | O=c1oc2cc(OCCCN3CCC(c4noc5cc(F)ccc45)CC3)ccc2c2c1CCC2 | > 10000 | > 10000 | 188 | –
17 | COc1ccccc1N1CCN(CCCCOc2ccc3c4c(c(=O)oc3c2)CCCC4)CC1 | 757 | 1120 | 1030 | –
18 | O=c1oc2cc(OCCCCN3CCC(c4nc5ccccc5o4)CC3)ccc2c2c1CCC2 | 1890 | 26.8 | 16.2 | –
19 | O=c1oc2cc(OCCCCN3CCN(c4nsc5ccccc45)CC3)ccc2c2c1CCC2 | – | 969 | 653 | –
20 | COc1ccc(N2CCN(CCCCOc3ccc4c5c(c(=O)oc4c3)CCC5)CC2)cc1 | > 10000 | 1240 | > 10000 | –
21 | O=c1oc2cc(OCCCCN3CCC(c4nc5ccccc5s4)CC3)ccc2c2c1CCC2 | > 10000 | 1600 | 1870 | –
22 | COc1ccccc1N1CCN(CCCCOc2ccc3c4c(c(=O)oc3c2Cl)CCC4)CC1 | 159 | 157 | 105 | –
23 | O=c1oc2cc(OCCCCN3CCN(c4ccc(F)cc4)CC3)ccc2c2c1CCC2 | > 10000 | 28.9 | 16.5 | –
24 | O=c1oc2c(Cl)c(OCCCCN3CCC(c4noc5cc(F)ccc45)CC3)ccc2c2c1CCC2 | 18.9 | 11.4 | 5.3 | Ki (Histamine H1 receptor): 13.6 nM; Ki (D(3) dopamine receptor): 13.9 nM
25 | Cc1cccc(N2CCN(CCCCOc3ccc4c5c(c(=O)oc4c3)CCC5)CC2)c1C | 1600 | 22.1 | 11.7 | –
26 | Cc1c(OCCCCN2CCC(c3noc4cc(F)ccc34)CC2)ccc2c3c(c(=O)oc12)CCC3 | 12.7 | 7.8 | 2.2 | Ki (Histamine H1 receptor): 1830 nM; selectivity ratio (in vivo [6]): 109; ED50 (Mus musculus [3]): 66.47 mg/kg; Activity (Mus musculus [4]): Dose-dependent effect; ED50 (Mus musculus [4]): 0.31 mg/kg; Activity (Mus musculus [5]): Dose-dependent effect; ED50 (Mus musculus [5]): 0.61 mg/kg; LD50 at 24 h [8]: > 2000 mg/kg; selectivity ratio (in vivo [7]): 214; Ki (D(3) dopamine receptor): 13.6 nM
27 | O=c1oc2cc(OCCCN3CCC(c4noc5cc(F)ccc45)CC3)ccc2c2ccccc12 | > 10000 | > 10000 | > 10000 | –
28 | O=c1oc2cc(OCCCCN3CCC(c4noc5cc(F)ccc45)CC3)ccc2c2c1CCCC2 | 624 | > 10000 | 126 | –
29 | O=c1oc2cc(OCCCCCN3CCC(c4noc5cc(F)ccc45)CC3)ccc2c2c1CCC2 | 698 | 1050 | 426 | –
